Counter-ions that a name gives are not always drawn. Like-named read-outs stand apart in the source and are kept apart here. Where a SMILES comes first, the peptide text is derived from it. [ ]: non-standard residue; d: D form. The star is where a group is joined. Dolaproine = CO[C@@H]([C@@H]1CCCN1)[C@@H](C)C(=O)O; Hexanoyl(6-maleimido) = O=C1C=CC(=O)N1CCCCCC(=O)*; Dil = CC[C@H](C)[C@H](NC)[C@@H](CC(=O)O)OC; Doe = c1ccc(C[C@H](N*)c2nccs2)cc1; NMeV = CN[C@H](C(=O)O)C(C)C; PhAc = O=C(Cc1ccccc1)*
What was measured:
[1] = target: T1, SARS-CoV-2 PLpro (nsp3 1564–1878) (Severe acute respiratory syndrome coronavirus 2, UniProt P0DTD1); test: biochemical; design: FRET-quenched peptide (Pro3) cleavage by PLpro, 10 min pre-incubation, slope over 20 min, normalised to no-compound control; conditions: low concentration screen, read-out: % of control remaining
[2] = target: T1, SARS-CoV-2 PLpro (nsp3 1564–1878); test: biochemical; design: FRET-quenched peptide (Pro3) cleavage by PLpro, 10 min pre-incubation, slope over 20 min, normalised to no-compound control; conditions: high concentration screen, read-out: % of control remaining

Structure (SMILES): CC(=O)N(C(C)=O)c1ccc(N=Nc2ccccc2C)cc1C [Diacetazotol]
- remaining activity at 1.25 µM ([1]; Well no.=7840): 98.8%
- remaining activity at 3.75 µM ([2]; Well no.=7840): 97.2%

Structure (SMILES): COc1ccc(C2=N[C@H](c3ccc(Cl)cc3)[C@H](c3ccc(Cl)cc3)N2C(=O)N2CCNC(=O)C2)c(OC(C)C)c1 [Nutlin (3b)]
- remaining activity at 1.25 µM ([1]; Well no.=6742): 100%
- remaining activity at 1.25 µM ([1]; Well no.=8362): 101%
- remaining activity at 3.75 µM ([2]; Well no.=6742): 100%

Structure (SMILES): CO[C@H]1/C=C/O[C@@]2(C)Oc3c(C)c(O)c4c(O)c(c(/C=N/N5CCN(C)CC5)c(O)c4c3C2=O)NC(=O)/C(C)=C\C=C\[C@H](C)[C@H](O)[C@@H](C)[C@@H](O)[C@@H](C)[C@H](OC(C)=O)[C@@H]1C [Rifampicin]
- remaining activity at 1.25 µM ([1]; Well no.=1668): 103%
- remaining activity at 1.25 µM ([1]; Well no.=3138): 101%
- remaining activity at 3.75 µM ([2]; Well no.=1668): 102%
- remaining activity at 3.75 µM ([2]; Well no.=3138): 97.7%

Structure (SMILES): CCOC(=O)C(C)(C)Oc1ccc(Cl)cc1 [Clofibrate]
- remaining activity at 1.25 µM ([1]; Well no.=326): 94.4%
- remaining activity at 1.25 µM ([1]; Well no.=1899): 94.1%
- remaining activity at 1.25 µM ([1]; Well no.=4468): 93.7%
- remaining activity at 3.75 µM ([2]; Well no.=326): 94.8%
- remaining activity at 3.75 µM ([2]; Well no.=1899): 94%
- remaining activity at 3.75 µM ([2]; Well no.=4468): 99.4%

Structure (SMILES): COc1cc2c(cc1O)CCN[C@]21CS[C@@H]2c3c(OC(C)=O)c(C)c4c(c3[C@H](COC1=O)N1[C@@H]2[C@H]2c3c(cc(C)c(OC)c3O)C[C@@H]([C@@H]1C#N)N2C)OCO4 [Ecteinascidin 770]
- remaining activity at 1.25 µM ([1]; Well no.=7070): 100%
- remaining activity at 3.75 µM ([2]; Well no.=7070): 97.2%

Structure (SMILES): O=C(NCc1ccco1)c1ccc2c(c1)N(Cc1c(F)cccc1Cl)C(=O)CS2 [STING agonist-1]
- remaining activity at 1.25 µM ([1]; Well no.=8643): 102%
- remaining activity at 3.75 µM ([2]; Well no.=8643): 103%

Structure (SMILES): CNc1nc(-c2ccc3c(N)n[nH]c3c2)cc(N2C[C@@H](C(=O)NC3CCCCC3)CC[C@H]2C)n1 [GSK2334470]
- remaining activity at 1.25 µM ([1]; Well no.=5464): 94.9%
- remaining activity at 3.75 µM ([2]; Well no.=5464): 101%

Structure (SMILES): N=C(N)NC(=O)c1nc(Cl)c(N)nc1N [Amiloride HCl dihydrate]
- remaining activity at 1.25 µM ([1]; Well no.=5290): 101%
- remaining activity at 3.75 µM ([2]; Well no.=5290): 100%

Structure (SMILES): CN1C(=O)N[C@H](Cc2c[nH]c3c(Cl)cccc23)C1=O [Necrostatin 2]
- remaining activity at 1.25 µM ([1]; Well no.=6916): 99.4%
- remaining activity at 3.75 µM ([2]; Well no.=6916): 98.6%

Structure (SMILES): CCOC(=O)CNC(=O)[C@@H]1CCCN1C(=O)Cc1ccccc1 [Noopept] (PhAc-Pro-Gly-OEt)
- remaining activity at 1.25 µM ([1]; Well no.=5674): 104%
- remaining activity at 3.75 µM ([2]; Well no.=5674): 104%

Structure (SMILES): CCC(C)C(CC)C(N)=O (centres unmarked) [Valnoctamide]
- remaining activity at 1.25 µM ([1]; Well no.=5429): 103%
- remaining activity at 3.75 µM ([2]; Well no.=5429): 110%

Structure (SMILES): CC[C@H]1[C@@H]2C[C@H]3[C@@H]4N(C)c5ccccc5[C@]45C[C@@H]([C@H]2[C@H]5O)N3[C@@H]1O [Ajmaline]
- remaining activity at 1.25 µM ([1]; Well no.=3437): 98.9%
- remaining activity at 3.75 µM ([2]; Well no.=3437): 98.2%

Structure (SMILES): CC[C@H](C)[C@@H]([C@@H](CC(=O)N1CCC[C@H]1[C@H](OC)[C@@H](C)C(=O)N[C@@H](Cc1ccccc1)c1nccs1)OC)N(C)C(=O)[C@@H](NC(=O)[C@H](C(C)C)N(C)C(=O)CCCCCN1C(=O)C=CC1=O)C(C)C [Mc-MMAD] ({Hexanoyl(6-maleimido)}-[NMeV]V[Dil][Dolaproine]-Doe)
- remaining activity at 1.25 µM ([1]; Well no.=8610): 95.3%
- remaining activity at 3.75 µM ([2]; Well no.=8610): 91.2%

Structure (SMILES): C[C@H](CCC(=O)O)[C@H]1CC[C@H]2[C@@H]3[C@H](O)C[C@@H]4C[C@H](O)CC[C@]4(C)[C@H]3CC[C@]12C [Chenodeoxycholic Acid]
- remaining activity at 1.25 µM ([1]; Well no.=6483): 99.2%
- remaining activity at 1.25 µM ([1]; Well no.=8382): 96.1%
- remaining activity at 3.75 µM ([2]; Well no.=6483): 101%
- remaining activity at 3.75 µM ([2]; Well no.=8382): 88.2%

Structure (SMILES): OC[C@H]1O[C@@H](n2cnc3c(N[C@H]4CCC[C@@H]4O)ncnc32)[C@H](O)[C@@H]1O [GR79236]
- remaining activity at 1.25 µM ([1]; Well no.=7817): 105%
- remaining activity at 1.25 µM ([1]; Well no.=7852): 94.1%
- remaining activity at 1.25 µM ([1]; Well no.=8455): 108%
- remaining activity at 3.75 µM ([2]; Well no.=7817): 105%
- remaining activity at 3.75 µM ([2]; Well no.=7852): 93.8%
- remaining activity at 3.75 µM ([2]; Well no.=8455): 110%

Structure (SMILES): O=C(O)CSc1nnc(Br)n1-c1ccc(C2CC2)c2ccccc12 [Lesinurad]
- remaining activity at 1.25 µM ([1]; Well no.=8158): 102%
- remaining activity at 3.75 µM ([2]; Well no.=8158): 104%

Structure (SMILES): NC(=O)c1ccc(I)c([N+](=O)[O-])c1 [Iniparib (BSI-201)]
- remaining activity at 1.25 µM ([1]; Well no.=5011): 103%
- remaining activity at 3.75 µM ([2]; Well no.=5011): 103%

Structure (SMILES): O=C1NC(=O)/C(=C/c2ccc3nccnc3c2)S1 [PI 3-Kg Inhibitor]
- remaining activity at 1.25 µM ([1]; Well no.=2515): 99.9%
- remaining activity at 3.75 µM ([2]; Well no.=2515): 106%

Structure (SMILES): CCCCCCCC/C=C\C/C=C\C/C=C\CCCC(=O)NCCO [Mead ethanolamide]
- remaining activity at 1.25 µM ([1]; Well no.=4324): 99.8%
- remaining activity at 3.75 µM ([2]; Well no.=4324): 95.4%

Structure (SMILES): Cc1ccc(Nc2nccc(N(C)c3ccc4c(C)n(C)nc4c3)n2)cc1S(N)(=O)=O [Pazopanib HCl]
- remaining activity at 1.25 µM ([1]; Well no.=4613): 110%
- remaining activity at 3.75 µM ([2]; Well no.=4613): 107%

Structure (SMILES): CC1(C)O[C@@H]2[C@@H](CO[C@@]3(COS(N)(=O)=O)OC(C)(C)O[C@@H]23)O1 [Topiramate]
- remaining activity at 1.25 µM ([1]; Well no.=4853): 101%
- remaining activity at 1.25 µM ([1]; Well no.=7527): 102%
- remaining activity at 3.75 µM ([2]; Well no.=4853): 104%
- remaining activity at 3.75 µM ([2]; Well no.=7527): 100%

Structure (SMILES): Nc1nc(OCc2cc(Br)cs2)c2[nH]cnc2n1 [Lomeguatrib]
- remaining activity at 1.25 µM ([1]; Well no.=5885): 105%
- remaining activity at 3.75 µM ([2]; Well no.=5885): 105%

Structure (SMILES): O=C(c1ccc(OCCCc2c[nH]cn2)cc1)C1CC1 [Ciproxifan (maleate)]
- remaining activity at 1.25 µM ([1]; Well no.=7089): 103%
- remaining activity at 3.75 µM ([2]; Well no.=7089): 105%

Structure (SMILES): c1ccc2c(-c3cnn4cc(-c5ccc(N6CCNCC6)cc5)cnc34)ccnc2c1 [LDN193189]
- remaining activity at 1.25 µM ([1]; Well no.=4956): 99.3%
- remaining activity at 3.75 µM ([2]; Well no.=4956): 97.7%

Structure (SMILES): O=C(O)COC(=O)Cc1ccccc1Nc1c(Cl)cccc1Cl [Aceclofenac]
- remaining activity at 1.25 µM ([1]; Well no.=2071): 103%
- remaining activity at 3.75 µM ([2]; Well no.=2071): 102%

Structure (SMILES): c1ccc2sc(C3(N4CCCCC4)CCCCC3)cc2c1 [BTCP hydrochloride]
- remaining activity at 1.25 µM ([1]; Well no.=325): 101%
- remaining activity at 3.75 µM ([2]; Well no.=325): 96.6%

Structure (SMILES): Cn1c(=O)c2c(ncn2CC(O)CO)n(C)c1=O (centres unmarked) [Diphylline]
- remaining activity at 1.25 µM ([1]; Well no.=7387): 106%
- remaining activity at 1.25 µM ([1]; Well no.=8273): 101%
- remaining activity at 3.75 µM ([2]; Well no.=7387): 105%
- remaining activity at 3.75 µM ([2]; Well no.=8273): 98.7%

Structure (SMILES): COc1cc2c(cc1OC)-c1cc3ccc4c(c3c[n+]1CC2)OCO4 [Epiberberine (chloride)]
- remaining activity at 1.25 µM ([1]; Well no.=8339): 91.9%
- remaining activity at 3.75 µM ([2]; Well no.=8339): 91.9%

Structure (SMILES): Cn1cc(-c2ccc3nnc(C(F)(F)c4ccc5ncccc5c4)n3n2)cn1 [JNJ38877605]
- remaining activity at 1.25 µM ([1]; Well no.=2887): 101%
- remaining activity at 3.75 µM ([2]; Well no.=2887): 102%

Structure (SMILES): CCn1cc(C(=O)O)c(=O)c2ccc(C)nc21 [Nalidixic acid sodium]
- remaining activity at 1.25 µM ([1]; Well no.=951): 101%
- remaining activity at 3.75 µM ([2]; Well no.=951): 102%

— paper PMC8286840, “Identifying SARS-CoV-2 antiviral compounds by screening for small molecule inhibitors of Nsp3 papain-like protease” (Biochemical Journal, 2021)
